How the values were obtained:
[1] = tested on: bedstraw; test: Test B pre/postemergence bedstraw; assay type: in vivo, Galium aparine
In short: (§1)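 Test chemicals in a non-phytotoxic solvent mixture with surfactant were sprayed preemergence onto planted seeds and postemergence onto plants 2 to 18 cm tall (1- to 4-leaf stage). After twelve to sixteen days in a greenhouse, injury was visually rated against untreated controls from 0 (no effect) to 10 (complete control).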

[2] = tested on: blackgrass; test: Test B pre/postemergence blackgrass; assay type: in vivo, Alopecurus myosuroides
In short: as §1

[3] = tested on: surinam grass; test: Test B pre/postemergence surinam grass; assay type: in vivo, Brachiaria decumbens
In short: as §1

[4] = tested on: cocklebur; test: Test B pre/postemergence cocklebur; assay type: in vivo, Xanthium strumarium
In short: as §1

[5] = tested on: corn; test: Test B pre/postemergence corn; assay type: in vivo, Zea mays
In short: as §1

[6] = tested on: crabgrass; test: Test B pre/postemergence crabgrass; assay type: in vivo, Digitaria sanguinalis
In short: as §1

[7] = tested on: giant foxtail; test: Test B pre/postemergence giant foxtail; assay type: in vivo, Setaria faberii
In short: as §1

[8] = tested on: morningglory; test: Test B pre/postemergence morningglory; assay type: in vivo, Ipomoea hederacea
In short: as §1

[9] = tested on: pigweed; test: Test B pre/postemergence pigweed; assay type: in vivo, Amaranthus retroflexus
In short: as §1

[10] = tested on: rape; test: Test B pre/postemergence rape; assay type: in vivo, Brassica napus
In short: as §1

[11] = tested on: soybean; test: Test B pre/postemergence soybean; assay type: in vivo, Glycine max
In short: as §1

[12] = tested on: velvetleaf; test: Test B pre/postemergence velvetleaf; assay type: in vivo, Abutilon theophrasti
In short: as §1

[13] = tested on: wheat; test: Test B pre/postemergence wheat; assay type: in vivo, Triticum aestivum
In short: as §1

[14] = tested on: wild oat; test: Test B pre/postemergence wild oat; assay type: in vivo, Avena fatua
In short: as §1

[15] = tested on: purple nutsedge; test: Test B pre/postemergence purple nutsedge; assay type: in vivo, Cyperus rotundus
In short: as §1

[16] = Preemergence, Rate 62 g/ha, scale of 0 to 10 where 0 is no effect and 10 is complete control
[17] = Preemergence, Rate 125 g/ha, 0 is no effect, 10 is complete control
[18] = Preemergence, Rate 250 g/ha, scale 0 to 10, 0 is no effect, 10 is complete control
[19] = Preemergence, Rate 500 g/ha, scale 0 to 10 (0 no effect, 10 complete control)
[20] = Rate 62 g/ha, Postemergence, scale of 0 to 10 where 0 is no effect and 10 is complete control
[21] = Rate 125 g/ha, Postemergence, scale 0 to 10
[22] = Rate 500 g/ha, Postemergence, scale 0 to 10

In the case of `Cc1nc(C)c(Cn2c(=O)on(C(=O)N(c3ccc(F)cc3)C(C)C)c2=O)s1` [Compound 192], the “Bedstraw plant response rating” value [1, 16] was 0, the “Bedstraw plant response rating (0 to 10 scale)” value [1, 17] was 0 and the “Bedstraw plant response rating” value [1, 18] was 0. For the same molecule, the “Bedstraw plant response rating” value [1, 19] was 0, the “Bedstraw plant response rating” value [1, 20] was 0 and the “Bedstraw plant response rating” value [1, 21] was 0. For the same molecule, the “Plant response rating (0 to 10; 0 is no effect, 10 is complete control), Bedstraw” value ([1]; Rate 250 g/ha, Postemergence) was 0, the “Bedstraw plant response rating” value [1, 22] was 0 and the “Blackgrass plant response rating” value [2, 16] was 5. For the same molecule, the “Blackgrass plant response rating (0 to 10 scale)” value [2, 17] was 5, the “Blackgrass plant response rating” value [2, 18] was 6 and the “Blackgrass plant response rating” value [2, 19] was 7. The “Blackgrass plant response rating” value [2, 20] was 0, the “Blackgrass plant response rating” value [2, 21] was 0 and the “Plant response rating (0 to 10; 0 is no effect, 10 is complete control), Blackgrass” value ([2]; Rate 250 g/ha, Postemergence) was 0. The “B. signalgrass plant response rating” value [3, 16] was 0, the “B. signalgrass plant response rating (0 to 10 scale)” value [3, 17] was 0 and the “B. signalgrass plant response rating” value [3, 18] was 6. For the same molecule, the “B. signalgrass plant response rating” value [3, 19] was 6, the “B. signalgrass plant response rating” value [3, 20] was 0 and the “B. signalgrass plant response rating” value ([3]; Rate 125 g/ha, Postemergence, scale 0 (no effect) to 10 (complete control)) was 0. The “Plant response rating, B. signalgrass” value ([3]; Rate 250 g/ha, Postemergence, scale 0 to 10, 0 is no effect, 10 is complete control) was 0, the “B. signalgrass plant response rating” value ([3]; Rate 500 g/ha, Postemergence, scale 0 to 10, 0 no effect, 10 complete control) was 2 and the “Cocklebur plant response rating” value [4, 16] was 0. For the same molecule, the “Cocklebur plant response rating (0 to 10 scale)” value [4, 17] was 0, the “Cocklebur plant response rating” value [4, 18] was 0 and the “Cocklebur plant response rating” value [4, 19] was 0. The “Cocklebur plant response rating” value [4, 20] was 0, the “Cocklebur plant response rating” value [4, 21] was 1 and the “Plant response rating (0 to 10; 0 is no effect, 10 is complete control), Cocklebur” value ([4]; Rate 250 g/ha, Postemergence) was 2. The “Cocklebur plant response rating” value [4, 22] was 5, the “Corn plant response rating” value [5, 16] was 0 and the “Corn plant response rating (0 to 10 scale)” value [5, 17] was 0. The “Corn plant response rating” value [5, 18] was 0, the “Corn plant response rating” value [5, 19] was 4 and the “Corn plant response rating” value [5, 20] was 0. The “Corn plant response rating” value [5, 21] was 0, the “Plant response rating (0 to 10; 0 is no effect, 10 is complete control), Corn” value ([5]; Rate 250 g/ha, Postemergence) was 0 and the “Corn plant response rating” value [5, 22] was 0. For the same molecule, the “Crabgrass plant response rating” value [6, 16] was 2, the “Crabgrass plant response rating (0 to 10 scale)” value [6, 17] was 6 and the “Crabgrass plant response rating” value [6, 18] was 7. The “Crabgrass plant response rating” value [6, 19] was 9, the “Crabgrass plant response rating” value [6, 20] was 1 and the “Crabgrass plant response rating” value [6, 21] was 1. For the same molecule, the “Plant response rating (0 to 10; 0 is no effect, 10 is complete control), Crabgrass” value ([6]; Rate 250 g/ha, Postemergence) was 1, the “Crabgrass plant response rating” value [6, 22] was 2 and the “Giant foxtail plant response rating” value [7, 16] was 8. For the same molecule, the “Giant foxtail plant response rating (0 to 10 scale)” value [7, 17] was 9, the “Giant foxtail plant response rating” value [7, 18] was 10 and the “Giant foxtail plant response rating” value [7, 19] was 10. The “Giant foxtail plant response rating” value [7, 20] was 0, the “Giant foxtail plant response rating” value [7, 21] was 0 and the “Plant response rating (0 to 10; 0 is no effect, 10 is complete control), Giant foxtail” value ([7]; Rate 250 g/ha, Postemergence) was 0. The “Giant foxtail plant response rating” value [7, 22] was 1, the “Morningglory plant response rating” value [8, 16] was 0 and the “Morningglory plant response rating (0 to 10 scale)” value [8, 17] was 0. The “Morningglory plant response rating” value [8, 18] was 0, the “Morningglory plant response rating” value [8, 19] was 3 and the “Morningglory plant response rating” value [8, 20] was 1. For the same molecule, the “Morningglory plant response rating” value [8, 21] was 3, the “Plant response rating (0 to 10; 0 is no effect, 10 is complete control), Morningglory” value ([8]; Rate 250 g/ha, Postemergence) was 6 and the “Morningglory plant response rating” value [8, 22] was 6. For the same molecule, the “Redroot pigweed plant response rating” value [9, 16] was 0, the “Redroot pigweed plant response rating (0 to 10 scale)” value [9, 17] was 2 and the “Redroot pigweed plant response rating” value [9, 18] was 5. For the same molecule, the “Redroot pigweed plant response rating” value [9, 19] was 9, the “Redroot pigweed plant response rating” value [9, 20] was 0 and the “Redroot pigweed plant response rating” value [9, 21] was 1. The “Plant response rating (0 to 10; 0 is no effect, 10 is complete control), Redroot pigweed” value ([9]; Rate 250 g/ha, Postemergence) was 3, the “Redroot pigweed plant response rating” value [9, 22] was 7 and the “Rape plant response rating” value [10, 16] was 0. The “Rape plant response rating (0 to 10 scale)” value [10, 17] was 0, the “Rape plant response rating” value [10, 18] was 4 and the “Rape plant response rating” value [10, 19] was 9. For the same molecule, the “Rape plant response rating” value [10, 20] was 0, the “Rape plant response rating” value [10, 21] was 0 and the “Plant response rating (0 to 10; 0 is no effect, 10 is complete control), Rape” value ([10]; Rate 250 g/ha, Postemergence) was 2. The “Rape plant response rating” value [10, 22] was 2, the “Soybean plant response rating” value [11, 16] was 0 and the “Soybean plant response rating (0 to 10 scale)” value [11, 17] was 0. The “Soybean plant response rating” value [11, 18] was 2, the “Soybean plant response rating” value [11, 19] was 2 and the “Soybean plant response rating” value [11, 20] was 3. For the same molecule, the “Soybean plant response rating” value [11, 21] was 3, the “Plant response rating (0 to 10; 0 is no effect, 10 is complete control), Soybean” value ([11]; Rate 250 g/ha, Postemergence) was 3 and the “Soybean plant response rating” value [11, 22] was 3. The “Velvetleaf plant response rating” value [12, 16] was 0, the “Velvetleaf plant response rating” value [12, 18] was 5 and the “Velvetleaf plant response rating” value [12, 19] was 6. For the same molecule, the “Velvetleaf plant response rating” value [12, 20] was 0, the “Velvetleaf plant response rating” value [12, 21] was 2 and the “Plant response rating (0 to 10; 0 is no effect, 10 is complete control), Velvetleaf” value ([12]; Rate 250 g/ha, Postemergence) was 3. The “Wheat plant response rating” value [13, 16] was 0, the “Wheat plant response rating” value [13, 18] was 0 and the “Wheat plant response rating” value [13, 19] was 0. The “Wheat plant response rating” value [13, 20] was 0, the “Wheat plant response rating” value [13, 21] was 0 and the “Plant response rating (0 to 10; 0 is no effect, 10 is complete control), Wheat” value ([13]; Rate 250 g/ha, Postemergence) was 0. The “Wild oats plant response rating” value [14, 16] was 0, the “Wild oats plant response rating” value [14, 18] was 5 and the “Wild oats plant response rating” value [14, 19] was 7. For the same molecule, the “Wild oats plant response rating” value [14, 20] was 0, the “Wild oats plant response rating” value [14, 21] was 0 and the “Plant response rating (0 to 10; 0 is no effect, 10 is complete control), Wild oats” value ([14]; Rate 250 g/ha, Postemergence) was 0. For the same molecule, the “Nutsedge plant response rating” value [15, 16] was 0, the “Nutsedge plant response rating (0 to 10 scale)” value [15, 17] was 0 and the “Nutsedge plant response rating” value [15, 20] was 0. For the same molecule, the “Nutsedge plant response rating” value [15, 21] was 0, the “Plant response rating (0 to 10; 0 is no effect, 10 is complete control), Nutsedge” value ([15]; Rate 250 g/ha, Postemergence) was 0 and the “Nutsedge plant response rating” value [15, 22] was 0.

— patent US6737383B1, “Herbicidal oxadiazolidines” (priority 1999, dated 2004)
